Experiments:
Type in all cases: in vivo
[1] = system: PTZ-induced clonic seizures; experiment: PTZ85 assay, latency of clonic seizures; settings: 1800 micromoles, male cd1/cr mice
Protocol: SCMET (PTZ85) Assay. Male CD1/CR mice weighing from 25-35 g are administrated test compounds (range of 5 doses) 15 minutes prior to PTZ. PTZ is administrated subcutaneously, just caudal to the cranium, at a dose of 85 mg/kg. Animals are then caged individually and observed for 15 minutes. The occurrence and latency to clonic and/or tonic convulsions are recorded. The mice are used once. Ten mice are used in each dose group. […] ED50 is determined from a graph of percentage protection vs log(dose) following the known method of Litchfield^18, where percentage protection refers to the percent of animals in each dose group which are protected against seizures. The compounds of interest were tested at an equivalent dose of 1800 micromoles on male cd1/cr mice using the PTZ85 Assay to induce clonic (repetitive seizures). Both the latency (time of seizure onset) and the number of animals protected increased with the size of the ring, or with increased lipophilicity.

[2] = system: Maximal Electroshock (MES) seizures; experiment: Maximal electroshock (MES) test, rats, oral, time to peak effect; settings: for Anticonvulsant potency compared with VPA (in words): summary of Table 2
Protocol: Anticonvulsant testing was conducted at the antiepileptic screening facility of the National Institute for Neurological Disorders and Stroke in Rockville, Md. Initial tests were done in mice (i.p.) followed by oral and i.p. administration to rats. Neurotoxicity was evaluated with the rotarod test. Maximal electroshock (MES) and subcutaneous methylene tetrazole (SCMET) or pentylene tetrazole (PTZ) were the most common tests performed. Typical procedures are described below. MES Assay. Male CD1/CR mice weighing from 25-35 g are administrated test compounds 15 minutes prior to MES. Mice are challenged by pulsed electrical stimulation (50 mA, 0.4 s duration, pulse width 0.5 ms, 60 pulses/sec) via corneal electrodes to induce seizure. Mice are observed post-stimulation for the onset of tonic seizures, and considered to have a tonic seizure only if there is a prolonged extension (>90° from plane of body) of the hind legs. […] Ten mice are used in each group. A number of VPA analogues and their sodium salts were tested for their efficacy as anticonvulsants and for their toxicity using the MES Assay and rotarod test.

[3] = system: rotarod test (neurotoxicity); experiment: Rotarod neurotoxicity test (TOX), rats, oral
Protocol: Anticonvulsant testing was conducted at the antiepileptic screening facility of the National Institute for Neurological Disorders and Stroke in Rockville, Md. Initial tests were done in mice (i.p.) followed by oral and i.p. administration to rats. Neurotoxicity was evaluated with the rotarod test. Maximal electroshock (MES) and subcutaneous methylene tetrazole (SCMET) or pentylene tetrazole (PTZ) were the most common tests performed. Typical procedures are described below.
Rotorod Test. Acute drug induced neurotoxicity is detected in mice using the standard rotorod test. An untreated mouse, when placed on a 6 rpm rotation rod, can maintain its equilibrium for a prolonged period of time.
A number of VPA analogues and their sodium salts were tested for their efficacy as anticonvulsants and for their toxicity using the MES Assay and rotarod test. In particular, the following compounds (as shown in the structures below) were tested: 332059U (sodium salt of VPA), 325071 (known compound, tested for comparison), 325073A (metabolite of VPA), 332060U (4,4-difluoro-2-propylpentanoate, fluorinated analogue of VPA), 341031, and 341032U (conjugated (E,Z)-2,3′-diene VPA analogues).

[4] = system: Subcutaneous Methylene Tetrazole (SCMET) seizures; experiment: Subcutaneous methylene tetrazole (SCMET) test, rats, oral, time to peak effect

O=C([O-])/C=C/C=C1CCCCCCC1.[Na+]
Latency of Clonic Seizures [1]: 855 s | Number of Mice Protected Against Clonic Seizures (Out of 10) [1]: 9

O=C([O-])/C=C/C=C1CCCCCC1.[Na+]
Latency of Clonic Seizures [1]: 778 s | Number of Mice Protected Against Clonic Seizures (Out of 10) [1]: 7

O=C([O-])/C=C/C=C1CCCCC1.[Na+]
Latency of Clonic Seizures [1]: 661 s | Number of Mice Protected Against Clonic Seizures (Out of 10) [1]: 4

O=C([O-])/C=C/C=C1CCCC1.[Na+]
Latency of Clonic Seizures [1]: 589 s | Number of Mice Protected Against Clonic Seizures (Out of 10) [1]: 2

C/C=C\C(=C/C)C(=O)[O-].[Na+] [325071A, Sodium (2E,3Z)-2-ethylidenpent-3-enoate]
MES N/F = number of animals protected relative to number tested ([2]; 80 mg/kg, 0.25 h): 0/4 | MES N/F = number of animals protected relative to number tested ([2]; 80 mg/kg, 0.5 h): 0/4 | MES N/F = number of animals protected relative to number tested ([2]; 80 mg/kg, 1.0 h): 0/4 | MES N/F = number of animals protected relative to number tested ([2]; 80 mg/kg, 2.0 h): 0/4 | MES N/F = number of animals protected relative to number tested ([2]; 80 mg/kg, 4.0 h): 0/4 | MES N/F = number of animals protected relative to number tested ([2]; 200 mg/kg, 0.25 h): 0/4 | MES N/F = number of animals protected relative to number tested ([2]; 200 mg/kg, 0.5 h): 1/4 | MES N/F = number of animals protected relative to number tested ([2]; 200 mg/kg, 1.0 h): 0/4 | MES N/F = number of animals protected relative to number tested ([2]; 200 mg/kg, 2.0 h): 1/4 | MES N/F = number of animals protected relative to number tested ([2]; 200 mg/kg, 4.0 h): 0/4 | TOX: N/F = number of animals that failed the rotarod test to numbers tested ([3]; 200 mg/kg, 0.25 h): 0/8 | TOX: N/F = number of animals that failed the rotarod test to numbers tested ([3]; 200 mg/kg, 0.5 h): 0/8 | TOX: N/F = number of animals that failed the rotarod test to numbers tested ([3]; 200 mg/kg, 1.0 h): 0/8 | TOX: N/F = number of animals that failed the rotarod test to numbers tested ([3]; 200 mg/kg, 2.0 h): 0/8 | TOX: N/F = number of animals that failed the rotarod test to numbers tested ([3]; 200 mg/kg, 4.0 h): 0/4 | SCMET N/F = number of animals protected relative to number tested ([4]; 80 mg/kg, 0.25 h): 0/4 | SCMET N/F = number of animals protected relative to number tested ([4]; 80 mg/kg, 0.5 h): 0/4 | SCMET N/F = number of animals protected relative to number tested ([4]; 80 mg/kg, 1.0 h): 1/4 | SCMET N/F = number of animals protected relative to number tested ([4]; 80 mg/kg, 2.0 h): 0/4 | SCMET N/F = number of animals protected relative to number tested ([4]; 80 mg/kg, 4.0 h): 0/4 | SCMET N/F = number of animals protected relative to number tested ([4]; 200 mg/kg, 0.25 h): 2/4 | SCMET N/F = number of animals protected relative to number tested ([4]; 200 mg/kg, 0.5 h): 0/4 | SCMET N/F = number of animals protected relative to number tested ([4]; 200 mg/kg, 1.0 h): 0/4 | SCMET N/F = number of animals protected relative to number tested ([4]; 200 mg/kg, 2.0 h): 1/4 | SCMET N/F = number of animals protected relative to number tested ([4]; 200 mg/kg, 4.0 h): 1/4

CCCC(CC(C)(F)F)C(=O)[O-].[Na+] (centres unmarked) [332060U, Sodium 4,4-difluoro-2-propylpentanoate]
TOX: N/F = number of animals that failed the rotarod test to numbers tested ([3]; 100 mg/kg, 0.25 h): 0/4 | TOX: N/F = number of animals that failed the rotarod test to numbers tested ([3]; 100 mg/kg, 0.5 h): 0/4 | TOX: N/F = number of animals that failed the rotarod test to numbers tested ([3]; 100 mg/kg, 1.0 h): 0/4 | TOX: N/F = number of animals that failed the rotarod test to numbers tested ([3]; 100 mg/kg, 2.0 h): 0/4 | TOX: N/F = number of animals that failed the rotarod test to numbers tested ([3]; 100 mg/kg, 4.0 h): 0/4 | TOX: N/F = number of animals that failed the rotarod test to numbers tested ([3]; 200 mg/kg, 0.25 h): 0/4 | TOX: N/F = number of animals that failed the rotarod test to numbers tested ([3]; 200 mg/kg, 0.5 h): 0/4 | TOX: N/F = number of animals that failed the rotarod test to numbers tested ([3]; 360 mg/kg, 0.25 h): 0/4 | TOX: N/F = number of animals that failed the rotarod test to numbers tested ([3]; 360 mg/kg, 0.5 h): 0/4 | TOX: N/F = number of animals that failed the rotarod test to numbers tested ([3]; 360 mg/kg, 1.0 h): 0/4 | TOX: N/F = number of animals that failed the rotarod test to numbers tested ([3]; 360 mg/kg, 2.0 h): 0/4 | TOX: N/F = number of animals that failed the rotarod test to numbers tested ([3]; 360 mg/kg, 4.0 h): 0/4 | SCMET N/F = number of animals protected relative to number tested ([4]; 100 mg/kg, 0.25 h): 1/4 | SCMET N/F = number of animals protected relative to number tested ([4]; 100 mg/kg, 0.5 h): 1/4 | SCMET N/F = number of animals protected relative to number tested ([4]; 100 mg/kg, 1.0 h): 0/4 | SCMET N/F = number of animals protected relative to number tested ([4]; 100 mg/kg, 2.0 h): 0/4 | SCMET N/F = number of animals protected relative to number tested ([4]; 100 mg/kg, 4.0 h): 0/4 | SCMET N/F = number of animals protected relative to number tested ([4]; 200 mg/kg, 0.25 h): 1/4 | SCMET N/F = number of animals protected relative to number tested ([4]; 200 mg/kg, 0.5 h): 1/4 | SCMET N/F = number of animals protected relative to number tested ([4]; 360 mg/kg, 0.25 h): 3/4 | SCMET N/F = number of animals protected relative to number tested ([4]; 360 mg/kg, 0.5 h): 0/4 | SCMET N/F = number of animals protected relative to number tested ([4]; 360 mg/kg, 1.0 h): 2/4 | SCMET N/F = number of animals protected relative to number tested ([4]; 360 mg/kg, 2.0 h): 1/4 | SCMET N/F = number of animals protected relative to number tested ([4]; 360 mg/kg, 4.0 h): 0/4 | Anticonvulsant efficacy in relation to neurotoxicity (in words) ([4]; summary of Table 2): effective at doses that do not demonstrate neurotoxicity

C/C=C\C(=C/C(C)C)C(=O)[O-].[Na+] [341031U, Sodium (2E)-4-methyl-2-[(1Z)-prop-1-en-1-yl]pent-2-enoate]
MES N/F = number of animals protected relative to number tested ([2]; 200 mg/kg, 0.25 h): 3/4 | MES N/F = number of animals protected relative to number tested ([2]; 200 mg/kg, 0.5 h): 2/4 | MES N/F = number of animals protected relative to number tested ([2]; 200 mg/kg, 1.0 h): 0/4 | MES N/F = number of animals protected relative to number tested ([2]; 200 mg/kg, 2.0 h): 0/4 | MES N/F = number of animals protected relative to number tested ([2]; 200 mg/kg, 4.0 h): 0/4 | Anticonvulsant potency compared with VPA (in words) [2]: more potent than VPA | TOX: N/F = number of animals that failed the rotarod test to numbers tested ([3]; 200 mg/kg, 0.25 h): 0/4 | TOX: N/F = number of animals that failed the rotarod test to numbers tested ([3]; 200 mg/kg, 0.5 h): 0/4 | TOX: N/F = number of animals that failed the rotarod test to numbers tested ([3]; 200 mg/kg, 1.0 h): 0/4 | TOX: N/F = number of animals that failed the rotarod test to numbers tested ([3]; 200 mg/kg, 2.0 h): 0/4 | TOX: N/F = number of animals that failed the rotarod test to numbers tested ([3]; 200 mg/kg, 4.0 h): 0/4

CC/C=C(\C=C(C)C)C(=O)[O-].[Na+] [341032U, Sodium (2E)-2-(2-methylprop-1-en-1-yl)pent-2-enoate]
MES N/F = number of animals protected relative to number tested ([2]; 200 mg/kg, 0.25 h): 4/4 | MES N/F = number of animals protected relative to number tested ([2]; 200 mg/kg, 0.5 h): 3/4 | MES N/F = number of animals protected relative to number tested ([2]; 200 mg/kg, 1.0 h): 1/4 | MES N/F = number of animals protected relative to number tested ([2]; 200 mg/kg, 2.0 h): 0/4 | MES N/F = number of animals protected relative to number tested ([2]; 200 mg/kg, 4.0 h): 0/4 | Anticonvulsant potency compared with VPA (in words) [2]: more potent than VPA | TOX: N/F = number of animals that failed the rotarod test to numbers tested ([3]; 200 mg/kg, 0.25 h): 3/4 | TOX: N/F = number of animals that failed the rotarod test to numbers tested ([3]; 200 mg/kg, 0.5 h): 4/4 | TOX: N/F = number of animals that failed the rotarod test to numbers tested ([3]; 200 mg/kg, 1.0 h): 1/4 | TOX: N/F = number of animals that failed the rotarod test to numbers tested ([3]; 200 mg/kg, 2.0 h): 0/4 | TOX: N/F = number of animals that failed the rotarod test to numbers tested ([3]; 200 mg/kg, 4.0 h): 0/4

Reference: patent US20060223888A1, “Valproic acid analogues and pharmaceutical composition thereof” (priority 2002, published 2006)
